Test results taken from patent publication US9751881B2, “Inhibitors of the renal outer medullary potassium channel” (Merck Sharp & Dohme Corp., priority 2013, dated 2017).
Structures can show the parent of a compound that is named as a salt. Where two headings read alike, the source gives them in different places.

Target: hROMK (hKir1.1) (Homo sapiens (Human), UniProt P48048)
Assay: Thallium Flux Assay (ROMK channel functional thallium flux, FLIPR-Tetra)
Assay type: cell-based
Details: read-out: ROMK TI IC50
Procedure: Cell Culture Conditions—HEK293 cells stably expressing hROMK (hKir1.1) were grown at 37° C. in a 10% CO2 humidified incubator in complete growth media: Dulbecco's Modified Eagle Medium supplemented with non-essential amino acids, Penicillin/Streptomycin/Glutamine, G418 and FBS. At >80% confluency, the media was aspirated from the flask and rinsed with 10 mL calcium/magnesium-free PBS. […] To dislodge the cell, the side of the flask was gently banged with one's hand. The cells completely titrated and then the cells were transferred to 25 mL complete media, centrifuged at 1,500 rpm for 6 min followed by resuspension in complete growth media and determine cell concentration. […] Under ideal growth conditions and appropriate tissue culture practices, this cell line is stable for 40-45 passages.
FluxOR Kit Components (Invitrogen F10017)
• FluxOR™ Reagent (Component A) • FluxOR™ Assay Buffer (Component B)—10× Concentrate • PowerLoad™ Concentrate (Component C)—100× Concentrate • Probenecid (Component D)—Lyophilized sample is kept at −20° C. Water soluble, 100× after solubilization in 1 mL water. […] Store at 4° C. • Thallium sulfate (Tl2SO4) Concentrate (Component G)—50 mM in water. […] Can be stored at room temperature • Stimulant Buffer (prepared at 5× final concentration in 1× FluxOR™Chloride-Free Buffer): 7.5 mM thallium sulfate and 0.75 mM potassium sulfate (to give a final assay concentration of 3 mM Thallium/0.3 mM potassium). Store at 4° C. when not in use. If kept sterile, this solution is good for months.
• 1. Seed HEK-hKir1.1 cells (50 μl at 20,000 cells/well) in 384-well PDL coated Microplates • 2. Allow cells to adhere overnight in humidified 37° C./10% CO2 incubator • 3. Completely remove cell growth media from microplate and replace with 25 μl loading buffer • 4. Incubate Microplate at room temperature, protected form light, for 90 min • 5. Remove loading buffer and replace with 25 μl 1× Assay Buffer±test compound. • 6. Incubate microplate at room temperature, protected from light, for 30 min • 7. […] Excitation=400 nm, Emission=460 & 580 nm. Collect data for ˜10 min.
Data Calculation—The fluorescence intensity of wells containing 3 μM of a standard control ROMK inhibitor of the present invention was used to define the ROMK-sensitive component of thallium flux. Fluorescence in the presence of test compounds was normalized to control values to provide % fluorescence change.

[1] = HEK293 cells stably expressing hROMK (hKir1.1), unit not given in Table 4 (IC50 potencies less than 1 μM)

hROMK (hKir1.1), sequence (P48048 whole entry): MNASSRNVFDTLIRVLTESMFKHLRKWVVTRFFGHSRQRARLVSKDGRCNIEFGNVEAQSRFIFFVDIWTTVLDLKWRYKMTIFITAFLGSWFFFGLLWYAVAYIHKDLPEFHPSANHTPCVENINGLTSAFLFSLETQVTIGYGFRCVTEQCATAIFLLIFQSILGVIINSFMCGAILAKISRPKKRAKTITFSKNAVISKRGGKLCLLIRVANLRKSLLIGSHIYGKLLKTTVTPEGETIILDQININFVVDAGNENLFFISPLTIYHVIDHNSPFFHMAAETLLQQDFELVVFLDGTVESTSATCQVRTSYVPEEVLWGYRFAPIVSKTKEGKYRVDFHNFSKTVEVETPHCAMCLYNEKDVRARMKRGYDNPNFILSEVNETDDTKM

Structure (SMILES) | IC50 [1] [nM] | IC50 [nM]
N#Cc1ccc(N2CCC3(CCN(CC4OCCc5c4ccc4c5COC4=O)CC3)C2)nc1 (centres unmarked) [Example 27, 6-(8-((3-oxo-3,6,8,9-tetrahydro-1H-furo[3,4-f]isochromen-6-yl)methyl)-2,8-diazaspiro[4.5]decan-2-yl)nicotinonitrile] | 103 | –
Cc1c([C@@H](O)CN2C3CCC2CC2(CC(=O)N(c4ccc(C#N)cn4)C2)C3)ccc2c1COC2=O (stereo partly drawn) [Example 29, 6-(8-((R)-2-Hydroxy-2-(4-methyl-1-oxo-1,3-dihydroisobenzofuran-5-yl)ethyl)-5′-oxo-8-azaspiro[bicyclo[3.2.1]octane-3,3′-pyrrolidin]-1′-yl)nicotinonitrile] | 198 | –
Cc1nc(N2CCC3(CCN(CC(O)c4ccc5c(c4C)COC5=O)CC3)CC2)ccc1C#N (centres unmarked) [Example 114] | 136 | –
Cc1c([C@@H](O)CN2CCC3(CCN(c4ncc(-n5cnnn5)cn4)CC3)C2)ccc2c1COC2=O [Example 54, (R)-5-(2-(8-(5-(1H-tetrazol-1-yl)pyrimidin-2-yl)-2,8-diazaspiro[4.5]decan-2-yl)-1-hydroxyethyl)-4-methylisobenzofuran-1(3H)-one] | 262 | –
Cc1c(C(O)CN2CCC3(CC2)CCN(c2ncc(C#N)cc2F)CC3)ccc2c1COC2=O (centres unmarked) [Example 113] | 473 | –
COc1cc(C(O)CN2CCC3(CC2)CCN(c2ccc(S(C)(=O)=O)cn2)C3)c(Cl)cc1C#N (centres unmarked) [Example 40, 5-Chloro-4-(1-hydroxy-2-(2-(5-(methylsulfonyl)pyridin-2-yl)-2,8-diazaspiro[4.5]decan-8-yl)ethyl)-2-methoxybenzonitrile] | 168 | –
Cc1c([C@@H](O)CN2CCC3(CCN(c4ccc(S(C)(=O)=O)cn4)CC3)C2)ccc2c1COC2=O [Example 64, 5-[(1R)-1-Hydroxy-2-{8-[5-(methylsulfonyl)pyridin-2-yl]-2,8-diazaspiro[4.5]dec-2-yl}ethyl]-4-methyl-2-benzofuran-1(3H)-one hydrochloride] | 272 | –
Cc1c([C@@H](O)CN2CCC3(CC2)CCN(c2ccc(C#N)cn2)CC3)ccc2c1COC2=O [Example 104] | – | 26
Cc1c([C@@H](O)CN2CCC3(CC2)CCN(c2ccc(S(C)(=O)=O)nn2)C3)ccc2c1COC2=O [Example 32, (R)-5-(1-Hydroxy-2-(2-(6-(methylsulfonyl)pyridazin-3-yl)-2,8-diazaspiro[4.5]decan-8-yl)ethyl)-4-methylisobenzofuran-1(3H)-one] | 177 | –
Cc1c([C@@H](O)CN2CCC3(CC2)CCN(c2nnc(S(C)(=O)=O)s2)C3=O)ccc2c1COC2=O [Example 76, 8-[(2R)-2-Hydroxy-2-(4-methyl-1-oxo-1,3-dihydro-2-benzofuran-5-yl)ethyl]-2-[5-(methylsulfonyl)-1,3,4-thiadiazol-2-yl]-2,8-diazaspiro[4.5]decan-1-one hydrochloride] | 100 | –
Cc1nc(N2CC3(CCN(C[C@H](O)c4ccc5c(c4C)COC5=O)CC3)CC2=O)ccc1-n1cnnn1 [Example 73, 8-[(2R)-2-Hydroxy-2-(4-methyl-1-oxo-1,3-dihydro-2-benzofuran-5-yl)ethyl]-2-[6-methyl-5-(1H-tetrazol-1-yl)pyridin-2-yl]-2,8-diazaspiro[4.5]decan-3-one hydrochloride] | 359 | –
Cc1c([C@@H](O)CN2CCC3(CC2)CCN(c2ncc(S(C)(=O)=O)cn2)C3)ccc2c1COC2=O [Example 41, (R)-5-(1-Hydroxy-2-(2-(5-(methylsulfonyl)pyrimidin-2-yl)-2,8-diazaspiro[4.5]decan-8-yl)ethyl)-4-methylisobenzofuran-1(3H)-one] | 101 | –
Cc1c([C@@H](O)CN2CCC3(CC2)CN(c2ccc(S(C)(=O)=O)cn2)CCO3)ccc2c1COC2=O [Example 98, (R)-5-(1-Hydroxy-2-(4-(5-(methylsulfonyl)pyridin-2-yl)-1-oxa-4,9-diazaspiro[5.5]undecan-9-yl)ethyl)-4-methylisobenzofuran-1(3H)-one] | 376 | –
Cc1c([C@@H](O)CN2CCC3(CC2)CC(=O)N(c2ccc4c(c2)CCS4(=O)=O)C3)ccc2c1COC2=O [Example 66, 2-(1,1-Dioxido-2,3-dihydro-1-benzothiophen-5-yl)-8-[(2R)-2-hydroxy-2-(4-methyl-1-oxo-1,3-dihydro-2-benzofuran-5-yl)ethyl]-2,8-diazaspiro[4.5]decan-3-one hydrochloride] | 101 | –

The remaining molecules from weak to strong by IC50 [1], led by results:

IC50 [1] [nM] | IC50 [nM] | Structure (SMILES)
88.7 | – | Cc1c([C@@H](O)CN2CCC3(CC2)CCN(c2ccc(C#N)nc2)C3)ccc2c1COC2=O [Example 87]
85.2 | – | Cc1c([C@@H](O)CN2CCC3(CC2)CCN(c2ccc(S(C)(=O)=O)cc2)C3=O)ccc2c1COC2=O [Example 75, 8-[(2R)-2Hydroxy-2-(4-methyl-1-oxo-1,3-dihydro-2-benzofuran-5-yl)ethyl]-2-[4-(methylsulfonyl)phenyl]-2,8-diazaspiro[4.5]decan-1-one hydrochloride]
83.2 | – | CCS(=O)(=O)c1cnc(N2CCC3(CCN(C[C@H](O)c4ccc5c(c4C)COC5=O)CC3)C2)cn1 [Example 63, 5-[(1R)-2-{2-[5-(Ethylsulfonyl)pyrazin-2-yl]-2,8-diazaspiro[4.5]dec-8-yl}-1-hydroxyethyl]-4-methyl-2-benzofuran-1(3H)-one hydrochloride]
75.7 | – | Cc1nc(N2CCC3(CCN(C[C@H](O)c4ccc5c(c4C)COC5=O)CC3)C2)ccc1S(C)(=O)=O [Example 36, (R)-5-(1-Hydroxy-2-(2-(6-methyl-5-(methylsulfonyl)pyridin-2-yl)-2,8-diazaspiro[4.5]decan-8-yl)ethyl)-4-methylisobenzofuran-1(3H)-one]
74.4 | – | N#Cc1ccc(N2CCC3(CCN(CC(O)c4cc5c(cc4C4CC4)C(=O)OC5)CC3)C2)nc1 (centres unmarked) [Example 25, 6-(8-(2-(6-Cyclopropyl-1-oxo-1,3-dihydroisobenzofuran-5-yl)-2-hydroxyethyl)-2,8-diazaspiro[4.5]decan-2-yl)nicotinonitrile]
68 | – | Cc1c([C@@H](O)CN2CCC3(CC2)CC(=O)N(c2ccc(S(C)(=O)=O)c(F)c2)C3)ccc2c1COC2=O [Example 67, 2-[3-Fluoro-4-(methylsulfonyl)phenyl]-8-[(2R)-2-hydroxy-2-(4-methyl-1-oxo-1,3-dihydro-2-benzofuran-5-yl)ethyl]-2,8-diazaspiro[4.5]decan-3-one hydrochloride]
56 | – | Cc1c([C@@H](O)CN2CCC3(CCCN(c4ccc(S(C)(=O)=O)cn4)C3)CC2)ccc2c1COC2=O [Example 61, (R)-5-(1-hydroxy-2-(2-(5-(methylsulfonyl)pyridin-2-yl)-2,9-diazaspiro[5.5]undecan-9-yl)ethyl)-4-methylisobenzofuran-1(3H)-one]
53.4 | – | Cc1c([C@@H](O)CN2CCC3(CC2)CC(=O)N(c2ccc(S(C)(=O)=O)cn2)C3)ccc2c1COC2=O [Example 34, (R)-8-(2-Hydroxy-2-(4-methyl-1-oxo-1,3-dihydroisobenzofuran-5-yl)ethyl)-2-(5-(methylsulfonyl)pyridin-2-yl)-2,8-diazaspiro[4.5]decan-3-one]
50.4 | – | COc1cc(C#N)ccc1N1CCC2(CCN(C[C@H](O)c3ccc4c(c3C)COC4=O)CC2)C1 [Example 86]
41.3 | – | Cc1c([C@@H](O)CN2CCC3(CC2)CCN(c2ccc(S(C)(=O)=O)cc2)C3)ccc2c1COC2=O [Example 31, (R)-5-(1-Hydroxy-2-(2-(4-(methylsulfonyl)phenyl)-2,8-diazaspiro[4.5]decan-8-yl)ethyl)-4-methylisobenzofuran-1(3H)-one]
26.3 | – | Cc1c(C(O)CN2CCC3(CC2)CCN(c2cc(C#N)ncn2)CC3)ccc2c1COC2=O (centres unmarked) [Example 106]
16.7 | – | COc1cc(N2CC3(CCN(C[C@H](O)c4ccc5c(c4C)COC5=O)CC3)OCC2=O)ncc1C#N [Example 102, (R)-6-(9-(2-Hydroxy-2-(4-methyl-1-oxo-1,3-dihydroisobenzofuran-5-yl)ethyl)-3-oxo-1-oxa-4,9-diazaspiro[5.5]undecan-4-yl)-4-methoxynicotinonitrile]
14.5 | – | Cc1c(C(O)CN2CCC3(CC2)CCN(c2ncc(C#N)cn2)CC3)ccc2c1COC2=O (centres unmarked) [Example 109]
12 | – | Cc1c(CCN2CCC3(CC2)CC(=O)N(c2ccc(C#N)cn2)C3)ccc2c1COC2=O [Example 4, 6-(8-(2-(4-methyl-1-oxo-1,3-dihydroisobenzofuran-5-yl)ethyl)-3-oxo-2,8-diazaspiro[4.5]decan-2-yl)nicotinonitrile]
10.1 | – | Cc1cc(N2CCC3(CCN(C[C@H](O)c4ccc5c(c4C)COC5=O)CC3)C2)cnc1C#N [Example 81]
